Data on 8 compounds can be found in article PMC10424187, “Structure-Guided Design and Synthesis of a Pyridazinone Series of Trypanosoma cruzi Proteasome Inhibitors” (Journal of Medicinal Chemistry, 2023).

A short description of data set [1]: Mouse microsomal intrinsic clearance. Type of data set: in vitro ADME. To be noted: mouse liver microsomes, scaling 52.5 mg microsomal protein/g liver. How it is done: Mouse microsomal intrinsic clearance.
This assay was conducted as previously described:
J.; Reid, I. H.; Hill, A. P.;
(§1) were prepared by adding a volume (5 µL) of the 10 mM solution to a volume (195 µL) of […]
In general terms: Microsomes from liver hold many membrane-bound enzymes, among them those of drug oxidation.

The subject of data set [2] is intracellular T. cruzi X10/7 A1 amastigotes.
The next data set deals with T. cruzi proteasome (Trypanosoma cruzi, UniProt V5BU39+V5C017). Briefly: T. cruzi proteasome assay (chymotrypsin-like activity, Suc-LLVY-Rho-110-DPro). To be noted: for T. cruzi Prot pIC50: mean of at least three independent replicates; for Emax: read-out: Tc Prot Max Response (%), individual replicate; for Tc Prot Hill Slope / Tc Prot Max Response (%): individual replicate.
T. cruzi proteasome, sequence (V5BU39 entry or part of it): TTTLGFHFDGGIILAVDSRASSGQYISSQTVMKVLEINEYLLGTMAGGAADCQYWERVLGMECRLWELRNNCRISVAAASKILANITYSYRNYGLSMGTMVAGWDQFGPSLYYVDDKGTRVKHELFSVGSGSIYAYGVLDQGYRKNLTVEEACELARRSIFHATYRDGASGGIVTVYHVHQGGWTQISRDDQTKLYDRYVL
T. cruzi proteasome, sequence (V5C017 entry or part of it): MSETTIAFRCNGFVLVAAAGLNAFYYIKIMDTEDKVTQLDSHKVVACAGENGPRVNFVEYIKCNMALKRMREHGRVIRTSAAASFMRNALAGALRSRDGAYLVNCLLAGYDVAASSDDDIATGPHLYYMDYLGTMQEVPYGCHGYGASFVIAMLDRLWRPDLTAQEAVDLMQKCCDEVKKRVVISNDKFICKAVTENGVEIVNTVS

The nature of a further data set: ChromLogD. It is filed as physicochemical. To be noted: pH 7.4; read-out: Chrom LogDpH7.4. On the procedure:
Chrom LogD was measured as previously described:
solubility and hydrophobicity. Drug Discov. Today 2010, 15, 648−655. […]

The target of another data set is Human 20S proteasome (Homo sapiens, UniProt P28074+P49721). Briefly: human proteasome assay (chymotrypsin-like activity, Suc-LLVY-Rho-110-DPro). To be noted: for Emax: read-out: Hs Prot Max Response (%), individual replicate.
The nature of data set [3]: Kinetic aqueous solubility (UHPLC, PBS pH 7.4). It is filed as physicochemical. Conditions: phosphate buffered saline, UHPLC UV/MS. How it is done:
This assay was conducted as previously described: […]
as §1
format). Samples were then drawn through the filter using vacuum. The filtrate from the above […]
formic acid gradient elution. The UHPLC parameters are shown below:
Gradient program: Initial: 98% A, 2% B
Re-equilibration time: 0.6 min
Autosampler temperature: 25°C
Detector wavelength: 254 nm

The mark [4] stands for this setting: T. cruzi Prot pIC50, mean of at least three independent replicates.
[5] abbreviates: Tc Prot pIC50, individual replicate.
The mark [6] stands for this setting: mean of at least three independent replicates.

Structures are written as SMILES. In brackets after ≈: the same amount, converted by molar mass. Several values for one entry are separate records, joined by “and”; a condition that tells them apart may be missing. Identical values can stand only once.

Method for T. cruzi proteasome: T. cruzi and human proteasome assays
The T. cruzi proteasome was partially purified as described in the above reference and Human
20S proteasome was purchased from Boston Biochem (now R&D Systems, catalogue number
a Tecan Fluent to titrate over 11 points in Labcyte Echo-compatible Greiner Bio-One 384 well
polypropylene microplates. Subsequently, 100 nl of test compound titrations were transferred
to black Greiner Bio-One low volume 384 well microplates using a Labcyte Echo acoustic
50 mM HEPES pH 7.5, 150 mM sodium chloride, 5% Glycerol, 1 mM dithiothreitol, 1 mM
CHAPS in deionised, filtered water (all chemicals purchased from Sigma Aldrich). Human 20S
These enzyme solutions were prepared immediately prior to assay initiation and stored at 4 °C
To monitor the Chymotrypsin-like activity of the T. cruzi and Human 20S proteasome proteins
a self-quenched, Rhodamine 110-labelled peptide with the sequence Suc-LLVY-Rho-110-
DPro was used (prepared by Cambridge Research Biochemicals. Suc is succinyl, while DPro
refers to ᴅ-proline). The peptide was initially prepared from solid as a 10 mM solution in 100%
DMSO and stored at -20 °C. Prior to use in the assay, an aliquot was thawed at room
to twofold Km. For use with the Human 20S proteasome, the Suc-LLVY-Rho-110-DPro
peptide was diluted in assay buffer to a concentration equivalent to twofold Km, which for this
enzyme was 2 μM. The peptide solutions were protected from light and stored at 4 °C before
A Multidrop Micro (Thermo Fisher), using a low volume dispense cassette, was used to add
the assay solutions to the test compounds in the low volume 384-well microplates. Prior to
addition of proteasome solution, 5 μl of assay buffer was added to one column (containing 100
nl, 100% DMSO) to act as no enzyme control to mimic full inhibition. Subsequently, 5 μl of
proteasome solution (either T. cruzi or Human 20S) was added to all wells on the test
microplate apart from the column containing 5 μl assay buffer. The microplate was then spun
using a suitable bench top centrifuge for 1 minute at 1000 rpm, before incubation at room
Following the initial incubation, 5 μl of substrate solution was then added to all wells on the
test microplate using a Multidrop Micro equipped with a discrete low volume dispense cassette.
The test microplates were then spun for 10 seconds at 1000 rpm before being rapidly moved to
a multi-mode microplate reader, capable of monitoring fluorescence intensity. The microplate
reader used for these studies was a Tecan M1000 Pro, equipped with quad monochromators.
530 ± 5 nm. A series of fluorescence intensity measurements were taken every 30 seconds for
Subsequently, the fluorescence intensity measurements (relative fluorescence units, RFU) were
fit to a simple linear regression model (y = A + Bx, where y refers to the fluorescence intensity
and x refers to the time in seconds) to determine the initial rate of reaction. The initial rate for
every compound concentration tested was then fit a 4-parameter logistic model: y = (A + (B -
A)) / (1 + (x / C)D), where y refers to the assay response, x refers to the inhibitor concentration,
A and B are the range values (minimum and maximum, respectively), C is the IC50 value and
D is the slope. Potency values were then reported as pIC50, which is the negative log of the
IC50 (on a molar scale). Data analysis was automated and carried out using the ActivityBase

As usually defined, the EC50 is the concentration at which the effect is half-maximal. High values mean a less potent agent, low ones a more potent agent. The IC50 is the concentration at which inhibition is half-maximal. A higher IC50 goes with a need for much substance. Turning to `CN(C(=O)c1ccc(=O)n(Cc2ccccc2)n1)c1cccc(C(=O)NC2CC2)c1` [Compound 6, 1-Benzyl-N-(3-(cyclopropylcarbamoyl)phenyl)-N-methyl-6-oxo-1,6-dihydropyridazine-3-carboxamide], the “Mouse CLi” value in data set [1] came out at 11 mL/min/g. This compound also registered a 50% effective concentration (EC50) in data set [2] of more than 50100 nM. For the same compound, the IC50 against T. cruzi proteasome (setting [4]) is more than 100000 nM. For the same compound, the IC50 against T. cruzi proteasome (setting [5]) was more than 100000 nM. On T. cruzi proteasome, the “T. cruzi Prot pIC50” value is “complete loss of activity” and the Emax turned out to be 30%. In addition, the chromatographic logD in the data set “ChromLogD” was 3.3. Also, on Human 20S proteasome (individual replicate), the “Hs Prot Max Response (%)” value is 28% and 21% and 6%; the “Hs Prot pIC50” value is recorded as less than 4. The “Hs Prot pIC50” value on Human 20S proteasome (setting [6]) is less than 4.
Consider `CN(C(=O)c1cccc(NC(=O)c2ccc(=O)n(Cc3ccccc3)n2)c1)C1CC1` [Compound 7, 1-Benzyl-N-(3-(cyclopropyl(methyl)carbamoyl)phenyl)-6-oxo-1,6-dihydropyridazine-3-carboxamide], for which the “Mouse CLi” value in data set [1] turned out to be 19 mL/min/g. In addition, the EC50 (in data set [2]; with host VERO cells) was more than 50100 nM throughout. Further, the Emax in data set [2] stood at 42%; in the data set with host VERO cells, 11%. The IC50 was 20000 nM against T. cruzi proteasome (setting [4]); 25100 nM and > 100000 nM and 15800 nM against T. cruzi proteasome (setting [5]). Moreover, the “Tc Prot Hill Slope” value on T. cruzi proteasome was 0.8 and 0.75. Also, on T. cruzi proteasome, the “Tc Prot Max Response (%)” value is 75% and 49% and 40% and 61%. Also, the chromatographic logD in “ChromLogD” was determined as 4.5. Also, at Human 20S proteasome (individual replicate), the “Hs Prot Max Response (%)” value was 20% and 27% and 10%. The “Hs Prot pIC50” value on Human 20S proteasome (individual replicate) and on Human 20S proteasome (setting [6]) was less than 4 in each case.
`O=C(Nc1cccc(C(=O)NC2CC2)c1)c1ccc(=O)n(Cc2ccccc2)c1` [Compound 8, 1-Benzyl-N-(3-(cyclopropylcarbamoyl)phenyl)-6-oxo-1,6-dihydropyridine-3-carboxamide]: in data set [1], the “Mouse CLi” value came out at 0.8 mL/min/g. The concentration for a half-maximal effect (EC50) was more than 50100 nM in data set [2]; > 50100 nM and 39800 nM and 25100 nM in the data set on host VERO cells. The IC50 is 1580 nM at T. cruzi proteasome (setting [4]); 2510 nM and 2000 nM and 794 nM on T. cruzi proteasome (setting [5]). Besides, the “Tc Prot Hill Slope” value on T. cruzi proteasome is 1.0 and 0.9. The “Tc Prot Max Response (%)” value at T. cruzi proteasome was 85% and 77%. Also, the Emax on T. cruzi proteasome amounted to 80%; at Human 20S proteasome it was 10%. Moreover, in the data set “ChromLogD”, the chromatographic logD turned out to be 3.3. Besides, at Human 20S proteasome (individual replicate), the “Hs Prot Max Response (%)” value is 12% and 6%. The “Hs Prot pIC50” value at Human 20S proteasome (individual replicate) and on Human 20S proteasome (setting [6]) was less than 4 in each case.
One may read the solubility as the dissolved amount per volume that the medium holds. Consider `O=C(Nc1ccc(F)c(C(=O)NC2CC2)c1)c1ccc(=O)n(Cc2ccccc2)n1` [Compound 9, 1-Benzyl-N-(3-(cyclopropylcarbamoyl)-4-fluorophenyl)-6-oxo-1,6-dihydropyridazine-3-carboxamide], for which the “Mouse CLi” value in data set [1] is listed as 6.7 mL/min/g. The results for the 50% effective concentration (EC50) (in data set [2]; in the data set with host VERO cells) were 2000 nM and more than 50100 nM, respectively. Besides, the Emax in data set [2] was 94% and 90% and 82% and 88% and 89%; at T. cruzi proteasome, 71%; in the data set on host VERO cells, 29%; on Human 20S proteasome it was 7%. In addition, the IC50 against T. cruzi proteasome (setting [4]) was 158 nM; against T. cruzi proteasome (setting [5]), 251 nM and 200 nM and 100 nM. The “Tc Prot Hill Slope” value at T. cruzi proteasome was 1.0 and 0.9. In addition, the “Tc Prot Max Response (%)” value at T. cruzi proteasome is 83% and 82%. The chromatographic logD in “ChromLogD” stood at 4.2. Moreover, the “Hs Prot Max Response (%)” value at Human 20S proteasome (individual replicate) was 8.53% and 11% and 6%. Further, the “Hs Prot pIC50” value on Human 20S proteasome (individual replicate) and at Human 20S proteasome (setting [6]) was less than 4 each time. In data set [3], this compound showed a solubility at 24 h of 218 µM (≈ 88.6 µg/mL).
For the compound `O=C(Nc1ccc(F)c(C(=O)NC2CC2)c1)c1ccc(=O)n(CC2CCCCC2)n1` [Compound 11, 1-(Cyclohexylmethyl)-N-(3-(cyclopropylcarbamoyl)-4-fluorophenyl)-6-oxo-1,6-dihydropyridazine-3-carboxamide], in data set [1], the “Mouse CLi” value was 7.3 mL/min/g. In data set [2], the EC50 is 7940 nM and 10000 nM and 5010 nM and 6310 nM; the Emax was 84% and 78% and 86% and 88%. The compound also showed an IC50 on T. cruzi proteasome (setting [4]) of 398 nM. Besides, the IC50 at T. cruzi proteasome (setting [5]) is 501 nM and 316 nM. At T. cruzi proteasome, the “Tc Prot Hill Slope” value is 0.9 and 0.85; the “Tc Prot Max Response (%)” value was found to be 87%; the Emax stood at 78%. In the data set with host VERO cells, the EC50 is more than 50100 nM and the Emax is 11%. In addition, in the data set “ChromLogD”, the chromatographic logD came out at 5.3. Further, at Human 20S proteasome (individual replicate), the “Hs Prot Max Response (%)” value was 13% and 33%; the “Hs Prot pIC50” value was less than 4. At Human 20S proteasome (setting [6]), the “Hs Prot pIC50” value is listed as less than 4.
Consider `COc1ccc(Cn2nc(C(=O)Nc3ccc(F)c(C(=O)NC4CC4)c3)ccc2=O)cc1` [Compound 12, N-[3-(Cyclopropylcarbamoyl)-4-fluorophenyl]-1-[(4-methoxyphenyl)methyl]-6-oxo-pyridazine-3-carboxamide], for which, in data set [1], the “Mouse CLi” value is listed as 2.4 mL/min/g. Moreover, in data set [2], the 50% effective concentration (EC50) is 398 nM and 316 nM and 501 nM; the Emax was 56% and 99% and 66%. Further, at T. cruzi proteasome (setting [4]), the IC50 is 31.6 nM. The IC50 against T. cruzi proteasome (setting [5]) was 39.8 nM and 25.1 nM. In addition, on T. cruzi proteasome, the “Tc Prot Hill Slope” value is 0.95 and 0.9; the “Tc Prot Max Response (%)” value is 80% and 85%; the Emax was determined as 67%. The chromatographic logD in “ChromLogD” came to 4.2. Besides, on Human 20S proteasome (individual replicate), the “Hs Prot Max Response (%)” value was 8% and 12% and 18%; the “Hs Prot pIC50” value was less than 4. In addition, at Human 20S proteasome (setting [6]), the “Hs Prot pIC50” value was less than 4. This compound also came in with a solubility at 24 h in data set [3] of 83 µM (≈ 36.2 µg/mL).
With `COc1cccc(Cn2nc(C(=O)Nc3ccc(F)c(C(=O)NC4CC4)c3)ccc2=O)c1` [Compound 13, N-(3-(Cyclopropylcarbamoyl)-4-fluorophenyl)-1-(3-methoxybenzyl)-6-oxo-1,6-dihydropyridazine-3-carboxamide], the “Mouse CLi” value in data set [1] was found to be 25 mL/min/g. Also, in data set [2], the EC50 was more than 50100 nM and the Emax came out at 23%. The compound also gave an IC50 against T. cruzi proteasome (setting [4]) of more than 100000 nM. The IC50 at T. cruzi proteasome (setting [5]) was more than 100000 nM. Besides, at T. cruzi proteasome, the “Tc Prot Max Response (%)” value was 2% and 10%; the “T. cruzi Prot pIC50” value is given as “complete loss of potency”. Further, the chromatographic logD in “ChromLogD” came to 5.5. At Human 20S proteasome (individual replicate), the “Hs Prot Max Response (%)” value is reported as 7% and the “Hs Prot pIC50” value is reported as less than 4. Moreover, at Human 20S proteasome (setting [6]), the “Hs Prot pIC50” value is listed as less than 4. On Human 20S proteasome, the Emax was 9%.
`COc1ccc(Cn2nc(C(=O)Nc3ccc(F)c(C(=O)NC4CC4)c3)ccc2=O)cc1C#N` [Compound 16, 1-[(3-Cyano-4-methoxy-phenyl)methyl]-N-[3-(cyclopropylcarbamoyl)-4-fluorophenyl]-6-oxo-pyridazine-3-carboxamide]: the “Mouse CLi” value in data set [1] was 0.7 mL/min/g. Also, in data set [2], the EC50 is 158 nM and 200 nM and 126 nM and 100 nM; the Emax was 91% and 90% and 102% and 87% and 92%. The compound further gave a half-maximal inhibitory concentration (IC50) against T. cruzi proteasome (setting [4]) of 10 nM. On T. cruzi proteasome (setting [5]), this compound had a half-inhibitory concentration (IC50) of 12.6 nM. Further, at T. cruzi proteasome, the “Tc Prot Hill Slope” value was 1.2 and 1.1; the “Tc Prot Max Response (%)” value is on record as 62%; the Emax came to 72%. Also, in “ChromLogD”, the chromatographic logD was determined as 4. Moreover, on Human 20S proteasome (individual replicate), the “Hs Prot Max Response (%)” value is 5% and the “Hs Prot pIC50” value is less than 4. At Human 20S proteasome (setting [6]), the “Hs Prot pIC50” value is recorded as less than 4. Also, the Emax at Human 20S proteasome was 4%. In data set [3], this compound yielded a solubility at 24 h of less than 1 µM.
